According to US20160128926A1, “COMPOSITIONS AND METHODS FOR TREATING NAILS, CLAWS, AND HOOFS” (TOPICAL SOLUTIONS, INC., priority 2013, published 2016):

Assays:
[1] = target: T1, hFP prostaglandin receptor (Homo sapiens, UniProt P43088); test: Competition binding assay (Reference Example 1), cited as the method for Example 1
T1 construct: expressed in transfected cells; host or cells: COS 7 cells transiently transfected (pCR 3.1 vector); the summary sentence instead says stably transfected CHO-KI cells

[2] = system: Prostanoid F receptor family and the Prostanoid E1 receptor family; test: R-SAT functional assay (Reference Example 2), cited as the method for Example 2; format: cell-based; settings: 23 Days
Source text: Without intending to be limited by theory, there are two principal prostaglandin receptor families that control nail growth: the Prostanoid F receptor family and the Prostanoid E1 receptor family. Potential at these receptors in measured in two types of assays-binding assays and functional assays. The functional assay is described herein and the binding assay is above as Reference Example 1.
There are many functional assays available, for example, growth in Swiss 3T3 cells. Preferred is the R-SAT system. R-SAT is a cell-based assay system where genes are transferred to cultured cells. The functional activity of the gene products, or potential drug targets, are then evaluated through signal transduction pathways that lead to cellular growth. The growth signals are reported using marker gene technologies. Thus, effects of drugs on potential drug targets can be efficiently detected as changes in color or fluorescence. R-SAT enables the efficient screening of large compound libraries for identification of new chemistries at given targets, as well as detailed pharmacological testing of compounds at a wide range of targets, as described in MESSIER, T., DORMAN, C. M.; BRAUNEROSBORNE, H.; EUBANKS, D. & BRANN, M. R. (1995) Pharmacol. and Toxicol. 76 308-311, incorporated herein by reference.
was tested according to the method of Reference Example 2.

T1 sequence (P43088 whole entry): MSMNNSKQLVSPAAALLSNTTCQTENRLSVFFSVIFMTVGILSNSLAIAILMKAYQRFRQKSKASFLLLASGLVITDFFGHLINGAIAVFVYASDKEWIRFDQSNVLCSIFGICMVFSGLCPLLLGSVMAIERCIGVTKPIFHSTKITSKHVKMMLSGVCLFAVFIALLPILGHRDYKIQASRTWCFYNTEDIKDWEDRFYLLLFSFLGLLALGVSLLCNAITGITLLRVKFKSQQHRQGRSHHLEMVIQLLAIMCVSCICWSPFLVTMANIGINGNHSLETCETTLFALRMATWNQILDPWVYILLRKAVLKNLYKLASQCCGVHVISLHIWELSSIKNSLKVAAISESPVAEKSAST

| SMILES | Average Grades ([1]; 23 Days) | Average Grades ([1]; 25 Days) | Average Grades ([1]; 26 Days) | Average Grades [2] |
| --- | --- | --- | --- | --- |
| CC(C)OC(=O)CCCCCC[C@@H]1[C@@H](CCC(O)CSc2ccccc2)[C@H](O)C[C@@H]1O (stereo partly shown) [Example 1] | 0.4 | 0.1 | 0.7 | – |
| COC(=O)CCCCCC[C@@H]1[C@@H](CCC(O)CSc2ccccc2Br)[C@H](O)C[C@@H]1O (stereo partly shown) [Example 2] | – | – | – | 0.1 |
